Patent publication US20080090916A1, “Compounds for Treating Urinary Incontinence” (priority 2005, published 2008)
“Also recorded” adds a separate entry of the source.

Legend:
[1] = In vitro percutaneous absorption (skin permeation) of saturated solutions, modified Franz cell; format: in vitro ADME, human; details: dissolved in IPM/Pharmasolve 80:20 (v/v), compared with control solution
Procedure: For all experiments (one run with 9 cells) skin from one patient was used. The skin was excised full skin from surgery of the thigh, cleaned from adhering fat tissue, stored at −18° C. prior to use but not for longer than 6 months.
In vitro skin permeation investigation was performed as described in this Example.
The flux was calculated for every formulation by means of linear regression (performance with Excel software; regression coefficient to be >0.98) from the mean cumulative permeated amounts in μg/cm^2 during steady state against the time in hours. For test solution #1 the linear regression was calculated from 12-48 hours (not until 72 hours, because after 48 hours the permeation was decreasing). […] The lag-time (which was the time when steady state of permeation was starting after application) was taken from the intersection of the regression line with the time axis.
The transdermal delivery rate was assumed to be the same in vivo as it is in vitro (this must, of course, be proven by further kinetic studies). The patch size was set to 20 cm^2, which is middle sized (small patches are 5 cm^2; big patches are 60 cm^2) and the delivery rate was calculated daily (1 day=24 hours).
(flux rate steady state [μg/cm^2/h]×20 [cm^2]×24[h])/1000=delivery rate [mg/20 cm^2/24 h].

[2] = system: pig vesicourethral junction sphincter muscle; experiment: Functional assay: dose response on isolated pig vesicourethral junction sphincter muscle strips; format: cell-based
From the text: Samples of female white landrace pig bladder and urethra were obtained from freshly slaughtered pigs at the local abattoir. The pigs were killed by exsanguination after initial stunning by electric shock. The anus, rectum, bladder and urethra were then excised en bloc during evisceration and immediately transferred into pre oxygenated Krebs' solution (1 mmol/l: NaCl 120, KCl 5.9 NaHCO3 15.4, CaCl2 2.5, MgCl2 1.2, glucose 11.5) and transported to the laboratory, where they were stored in the refrigerator (at 4° C.) until ready to be processed.
The location of the vesicourethral junction sphincter was then identified. The bladders were inflated via a transurethral catheter with 200 ml. fluid. The fluid was then gently squeeze towards the outlet, until a sharp narrowing of the bladder base becomes apparent (Dass, 1997; Dass et al., 2001). Tissue sections from this region were then denuded of urothelium, and dissected transversely into a number of muscle strips.
Muscle strips measuring about 5-6 mm by 2-3 mm with an average weight of 7 mg were dissected, fine (5/0) silk threads were tied at each end of the strips and each strip mounted vertically in a 0.2 ml capacity, perspex organ bath between two recessed platinum electrodes through which electrical field stimulation (EFS) could be delivered. Strips were constantly superfused with Krebs' solution (37° C.) at a rate of 1.5 ml 1 min. The Krebs' solutions were gassed with 97% oxygen 3% carbon dioxide. Drugs were delivered by substituting drug containing solutions of the desired concentration for Krebs' solutions.
The apparatus comprised of six organ baths in parallel allowing the study of six strips simultaneously as described by Brading and Sibley (1983). Each channel was calibrated with a 1 g weight attached to the transducer before each experiment, and tissues were tensioned to 1 g after mounting. Isomeric tension generated by the strips was measured using isomeric force displacement transducers, Pioden Dynamometer UFI transducers (Pioden Controls Ltd, Canterbury, Kent) or AD Instruments MLT050/D force transducers, amplified (Harvard Transducer/Amplifier, Harvard Apparatus Ltd, Edenbridge, Kent) and analyzed using MacLab Data Acquisition system (AD Instruments, Sydney, Australia) or AD Instruments OCTAL Bridge Amplifier connected to Power Lab/8SP (AD Instruments, Sydney, Australia) and Chart v3.6 software (Macintosh) or Chart v5 (PC).
Dose response curves for the various compounds were constructed by testing one drug on a pair of strip in each experiment. The preparations were subjected to a sequence of successive 10 s […] applications of increasing doses of drugs with intervening washout periods.
1R,2S-methoxamine hydrochloride, the compound of formula (Ia) and the compound of formula (III) were made available by Norgine International Research, Middlesex.
Responses were reported as either grams of tension or % maximum force and given as mean values ±SEM. EC50 values were used as a measure of potency. The EC50 values were measured from the graph of dose response curve using the kaleidograph graphical software applications. Results were assessed using statistical analysis software, StatView 5.0 (SAS Institute Inc.) using ANOVA followed by Fisher's test. Significant difference between data was assumed with p<0.05.

enhancement factor for percutaneous absorption [1]: 13.84 | EC50 ([2]; Sus scrofa, contraction, from dose response curve, read-out: relative potencies (EC50)): 4.64 mM
SMILES: COc1ccc(OC)c([C@@H](O)[C@H](C)NC(=O)CC[C@H](N)C(=O)O)c1 [compound of formula (Ia), (S)-2-Amino-4-[(1S,2R)-2-(2,5-dimethoxyphenyl)-2-hydroxy-1-methyl-ethylcarbamoyl]butyric acid]
contractile response of muscle strip (representative traces) ([2]; compound alone, FIG. 1): no significant contraction; also recorded: little or no activity | response over the dose range tested ([2]; dose range 10^−6M-10^−2M): failed to evoke any appreciable response
